Data as given in PMC5467912, “Asymmetric regulation of quorum-sensing receptors drives autoinducer-specific gene expression programs in Vibrio cholerae” (PLoS Genetics, 2017).
Where “and” joins values, the source holds several entries; their conditions need not be identical. Equal values may be shown once.

Assays:
VCA0107-GFP = test: Qrr4 regulation of VCA0107-GFP translational fusion, anhydrous tetracycline-inducible qrr4 (S4 Fig); type: cell-based, E. coli; conditions: pVC107 vector, aTc 200 ng/ml
From the text: (§1) We examined whether Qrr regulation of CqsS is direct or indirect using a CqsS-mKATE2 translational fusion in E. coli expressing inducible qrr4. We reasoned that, if CqsS production is controlled by Qrr4, repression of CqsS-mKATE2 should occur when Qrr4 is induced. We verified that our system works by showing that inducible Qrr4 is capable of repressing a previously-identified direct target, VCA0107-GFP [24]. However, no repression of CqsS-mKATE2 occurred following induction of Qrr4 (S4 Fig).
(§2) To assay qrr4 regulation of cqsS, the relative fluorescence of translational fusions (VCA0107B-GFP and CqsS-mKATE2) was measured in E. coli BWR1. E. coli carrying one of these plasmids also contained either an empty plasmid (pZA31) or pZA31 carrying anhydrous tetracycline-inducible qrr4. Qrr4-mediated repression of CqsS-mKATE2 was assessed. VCA0107-GFP is a known Qrr4-repressed target and was used as a positive control to show the system was functional. Overnight cultures were diluted 1:50 into fresh medium and aliquotted in triplicate into 96 well plates. […] OD600 and fluorescence were assessed using an Envision 2103 Multilabel Reader (Perkin Elmer).
(§3) Supplementary file pgen.1006826.s008.tiff: S4 Fig Qrr4 indirectly regulates cqsS. Fluorescence from plasmid-encoded VCA0107-GFP (circles) and CqsS-mKATE2 (squares) was measured in E. coli. Either an empty vector (pZA31-lucNB, black) or pZA31-lucNB carrying tetracycline-inducible qrr4 (pYS245, red) was present in each strain. VCA0107 encodes a type VI secretion system component that is regulated by Qrr4. Data represent two experiments conducted in triplicate. Error bars represent standard errors of the mean. (TIFF) Click here for additional data file.

CqsS-mKATE2 = test: Qrr4 regulation of CqsS-mKATE2 translational fusion, anhydrous tetracycline-inducible qrr4 (S4 Fig); type: cell-based, E. coli
From the text: as §1, §2, §3

Structure (SMILES): Cc1c2c(c(O)c3c(O)cccc13)C(=O)[C@]1(O)C(=O)C(C(N)=O)=C(O)[C@@H](N(C)C)[C@@H]1C2 [aTc]
- Relative reporter signal, single replicates (VCA0107-GFP): 1.427 and 1.005 and 1.106 and 1.055 and 1.369 and 1.3707
- Relative reporter signal, experimental averages (VCA0107-GFP; normalized to 0.0976562 ng/ml): 1.389 and 1.0553
- Relative reporter signal, experimental averages (CqsS-mKATE2; pCqsS Qrr4, aTc 0.0976562 ng/ml (normalization point)): 1
- Relative reporter signal, experimental averages (CqsS-mKATE2; pCqsS Qrr4, aTc 0.195312 ng/ml, normalized to 0.0976562 ng/ml): 0.9161 and 1.022 and 1.111
- Relative reporter signal, experimental averages (CqsS-mKATE2; pCqsS Qrr4, aTc 0.390625 ng/ml, normalized to 0.0976562 ng/ml): 0.9447 and 1.099 and 1.082
- Relative reporter signal, experimental averages (CqsS-mKATE2; pCqsS Qrr4, aTc 0.78125 ng/ml, normalized to 0.0976562 ng/ml): 0.9451 and 1.129 and 1.056
- Relative reporter signal, experimental averages (CqsS-mKATE2; pCqsS Qrr4, aTc 1.5625 ng/ml, normalized to 0.0976562 ng/ml): 1.068 and 1.16 and 0.9801
- Relative reporter signal, single replicates (CqsS-mKATE2; pCqsS Qrr4, aTc 3.125 ng/ml): 1.44 and 0.9097 and 1.127 and 0.956
- Relative reporter signal, experimental averages (CqsS-mKATE2; pCqsS Qrr4, aTc 3.125 ng/ml, normalized to 0.0976562 ng/ml): 1.078 and 1.159 and 0.9843
- Relative reporter signal, single replicates (CqsS-mKATE2; pCqsS Qrr4, aTc 6.25 ng/ml): 1.264 and 1.158 and 1.22 and 0.881 and 1.097 and 1.0668 and 1.093 and 0.9121 and 1.019
- Relative reporter signal, experimental averages (CqsS-mKATE2; pCqsS Qrr4, aTc 6.25 ng/ml, normalized to 0.0976562 ng/ml): 1.008 and 1.214 and 1.015
- Relative reporter signal, single replicates (CqsS-mKATE2; pCqsS Qrr4, aTc 12.5 ng/ml): 1.4702 and 1.295 and 1.361 and 0.8302 and 0.9914 and 0.8969 and 1.079 and 1.208 and 0.9918
- Relative reporter signal, experimental averages (CqsS-mKATE2; pCqsS Qrr4, aTc 12.5 ng/ml, normalized to 0.0976562 ng/ml): 1.093 and 1.376 and 0.9062
- Relative reporter signal, single replicates (CqsS-mKATE2; pCqsS Qrr4, aTc 25 ng/ml): 1.547 and 1.293 and 1.267 and 0.9302 and 0.911 and 0.8369 and 1.15 and 1.125 and 1.107
- Relative reporter signal, experimental averages (CqsS-mKATE2; pCqsS Qrr4, aTc 25 ng/ml, normalized to 0.0976562 ng/ml): 1.127 and 1.369 and 0.8927
- Relative reporter signal, single replicates (CqsS-mKATE2; pCqsS Qrr4, aTc 50 ng/ml): 1.539 and 1.282 and 1.3008 and 0.9601 and 0.9046 and 0.8156 and 1.287 and 1.24 and 0.9722
- Relative reporter signal, experimental averages (CqsS-mKATE2; pCqsS Qrr4, aTc 50 ng/ml, normalized to 0.0976562 ng/ml): 1.167 and 1.374 and 0.8934
- Relative reporter signal, single replicates (CqsS-mKATE2; pCqsS Qrr4, aTc 100 ng/ml): 1.525 and 1.187 and 1.2288 and 1.039 and 0.9388 and 0.8346 and 1.105 and 1.41 and 1.043
- Relative reporter signal, experimental averages (CqsS-mKATE2; pCqsS Qrr4, aTc 100 ng/ml, normalized to 0.0976562 ng/ml): 1.186 and 1.313 and 0.9374
- Relative reporter signal, single replicates (CqsS-mKATE2; pCqsS Qrr4, aTc 200 ng/ml): 1.816 and 1.134 and 1.357 and 1.246 and 1.145 and 0.8992 and 1.196 and 1.432 and 1.656
- Relative reporter signal, experimental averages (CqsS-mKATE2; pCqsS Qrr4, aTc 200 ng/ml, normalized to 0.0976562 ng/ml): 1.428 and 1.436 and 1.096
- Relative reporter signal, experimental averages (CqsS-mKATE2; pCqsS vector, aTc 0.0976562 ng/ml (normalization point)): 1
- Relative reporter signal, experimental averages (CqsS-mKATE2; pCqsS vector, aTc 0.195312 ng/ml, normalized to 0.0976562 ng/ml): 1.035 and 0.9136
- Relative reporter signal, experimental averages (CqsS-mKATE2; pCqsS vector, aTc 0.390625 ng/ml, normalized to 0.0976562 ng/ml): 1.0872 and 0.9606
- Relative reporter signal, experimental averages (CqsS-mKATE2; pCqsS vector, aTc 0.78125 ng/ml, normalized to 0.0976562 ng/ml): 0.9727 and 0.9156
- Relative reporter signal, experimental averages (CqsS-mKATE2; pCqsS vector, aTc 1.5625 ng/ml, normalized to 0.0976562 ng/ml): 1.033 and 0.9687
- Relative reporter signal, single replicates (CqsS-mKATE2; pCqsS vector, aTc 3.125 ng/ml): 1.095 and 1.006 and 1.033 and 1.049 and 1.037 and 0.9455
- Relative reporter signal, experimental averages (CqsS-mKATE2; pCqsS vector, aTc 3.125 ng/ml, normalized to 0.0976562 ng/ml): 1.045 and 1.01
- Relative reporter signal, single replicates (CqsS-mKATE2; pCqsS vector, aTc 6.25 ng/ml): 1.025 and 0.9971 and 1.015 and 1.078 and 0.9309 and 0.9316
- Relative reporter signal, experimental averages (CqsS-mKATE2; pCqsS vector, aTc 6.25 ng/ml, normalized to 0.0976562 ng/ml): 1.0121 and 0.9801
- Relative reporter signal, single replicates (CqsS-mKATE2; pCqsS vector, aTc 12.5 ng/ml): 1 and 0.9215 and 1.059 and 1.011 and 1.014 and 0.8976
- Relative reporter signal, experimental averages (CqsS-mKATE2; pCqsS vector, aTc 12.5 ng/ml, normalized to 0.0976562 ng/ml): 0.9936 and 0.9741
- Relative reporter signal, single replicates (CqsS-mKATE2; pCqsS vector, aTc 25 ng/ml): 0.9696 and 0.9738 and 0.9202 and 1.059 and 1.016 and 0.9126
- Relative reporter signal, experimental averages (CqsS-mKATE2; pCqsS vector, aTc 25 ng/ml, normalized to 0.0976562 ng/ml): 0.9545 and 0.9958
- Relative reporter signal, single replicates (CqsS-mKATE2; pCqsS vector, aTc 50 ng/ml): 0.9232 and 0.9361 and 1.0359 and 1.102 and 1.073 and 0.9182
- Relative reporter signal, experimental averages (CqsS-mKATE2; pCqsS vector, aTc 50 ng/ml, normalized to 0.0976562 ng/ml): 0.965 and 1.031
- Relative reporter signal, single replicates (CqsS-mKATE2; pCqsS vector, aTc 100 ng/ml): 0.9506 and 0.9792 and 0.9909 and 1.135 and 1.123 and 0.9303
- Relative reporter signal, experimental averages (CqsS-mKATE2; pCqsS vector, aTc 100 ng/ml, normalized to 0.0976562 ng/ml): 0.9736 and 1.063
- Relative reporter signal, single replicates (CqsS-mKATE2; pCqsS vector, aTc 200 ng/ml): 1.017 and 1.029 and 1.01 and 1.335 and 1.085 and 1.09
- Relative reporter signal, experimental averages (CqsS-mKATE2; pCqsS vector, aTc 200 ng/ml, normalized to 0.0976562 ng/ml): 1.019 and 1.17
